Converted amounts (≈) assume the structure as drawn. Where two headings read alike, the source gives them in different places.
Experiments:
[1] = target: recombinant full-length human hydroxyacid oxidase 1 (HAO1), the equivalent of hGOX (Homo sapiens (Human), UniProt Q9UJM8); test: In-vitro human glycolate oxidase (hGOX) assay (Amplex red/HRP fluorescence); format: biochemical
Procedure: Biological Activity Assay: In-Vitro Human Glycolate Oxidase (hGOX) Assay
The in-vitro glycolate oxidase assay was performed using recombinant full-length human hydroxyacid oxidase 1 (HAO1), the equivalent of hGOX. […] Purified HAO1 was dissolved in assay buffer consisting of 10 mM NaCl, 110 mM KCl, 2 mM MgCl2, 50 mM HEPES (pH 7.4) and 0.01% Triton™ X-100.

[2] = target: glycolate oxidase (GOX) in HepaRG-CAR cells (Homo sapiens (Human), UniProt Q9UJM8); test: HepaRG-CAR cell-based assay for quantitation of glycolate oxidase inhibition (cellular glycolate flux, GC-MS)
[3] = Solubility in phosphate buffered saline (PBS), pH 7.4; format: physicochemical; settings: phosphate buffer (PBS), aqueous buffer, kinetic from dmso stock; phosphate buffered saline pH 7.4, 1% DMSO, 1 hour shaking at room temperature
Procedure, shortened: (§1)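 DMSO stock (10 mM) diluted into 100 mM phosphate buffer pH 7.4, or into deionized distilled water for the aqueous assay, at 1% final DMSO and shaken 1 h at room temperature. After centrifugation, supernatants quantified by LC-MS/MS against a calibration curve with internal standard.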

[4] = Solubility in aqueous solution (deionized, distilled water); format: physicochemical; settings: kinetic from dmso stock, 1% DMSO, read-out: Aqueous Solubility H2O
Procedure, shortened: as §1

[5] = Metabolic stability in human liver microsomal preparation; format: in vitro ADME; settings: pH 7.4, human liver microsomes, NADPH, 37° C.; for half-life at 1 μM: 0-45 min, read-out: Metabolic Stability t1/2
Procedure, shortened: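 Compound at 1.5 μM with 0.75 mg/mL human liver microsomes (concentrations before NADPH addition) in 0.1 M potassium phosphate, 1 mM EDTA, pH 7.4 was preincubated 5 min at 37 °C, then started with NADPH. Samples at 0, 5, 15, 30 and 45 min were quenched with acetonitrile/internal standard and analysed by LC/MS.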

[6] = Stability in human plasma; format: in vitro ADME; settings: read-out: Plasma Stability T1/2
Procedure, shortened: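 Pooled human plasma (pH 7.4-8) at 37° C, test compound spiked from a 0.02 mM solution in phosphate buffer with 0.5% BSA. Samples taken at 0, 5, 15, 30, 45 and 60 min, quenched with acetonitrile containing internal standard, and remaining compound measured by LC/MS.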

[7] = Protein binding (plasma equilibrium dialysis); format: in vitro ADME; settings: 5 hours at 37° C.; for fraction unbound at 5 h, 1 μM: read-out: Protein Binding Fraction Bound (converted)
Procedure, shortened: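 Compound spiked into plasma at 1 μM final (0.2% DMSO) and dialysed against phosphate buffer for 5 hours at 37 °C with shaking. Donor and receiver samples, matrix-matched and acetonitrile-quenched with internal standard, quantified by LC/MS/MS alongside 0-hour plasma samples.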

[8] = HepaRG-CAR cells, 500 μM glycolate, 48 hours incubation, read-out: IC50

recombinant full-length human hydroxyacid oxidase 1 (HAO1), the equivalent of hGOX, sequence (Q9UJM8 whole entry): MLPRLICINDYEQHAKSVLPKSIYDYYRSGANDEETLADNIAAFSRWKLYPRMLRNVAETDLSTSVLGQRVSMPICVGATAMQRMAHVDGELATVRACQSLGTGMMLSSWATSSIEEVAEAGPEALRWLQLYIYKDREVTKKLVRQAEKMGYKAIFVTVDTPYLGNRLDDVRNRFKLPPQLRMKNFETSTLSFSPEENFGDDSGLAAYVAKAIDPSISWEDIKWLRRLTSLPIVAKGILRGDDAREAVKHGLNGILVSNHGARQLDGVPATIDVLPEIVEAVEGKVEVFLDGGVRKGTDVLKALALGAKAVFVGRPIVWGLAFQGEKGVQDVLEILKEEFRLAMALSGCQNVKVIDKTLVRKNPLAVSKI
glycolate oxidase (GOX) in HepaRG-CAR cells, sequence (Q9UJM8 whole entry): as above

| SMILES | IC50 [1] | IC50 [2, 8] | solubility at 1 h [3] | solubility at 1 h [4] | CLint scaled at 1 μM [5] | half-life at 1 μM [5] | half-life at 2 μM [6] | recovery at 5 h, 1 μM [7] | fraction unbound at 5 h, 1 μM [7] | IC50 [2] |
| --- | --- | --- | --- | --- | --- | --- | --- | --- | --- | --- |
| O=C(O)c1nn[nH]c1Oc1cccc(-c2ccncc2)c1 [Example I-260, 5-(3-(Pyridin-4-yl)phenoxy)-1H-1,2,3-triazole-4-carboxylic acid] | 21 nM | 2500 nM | 100 µM (≈ 28.4 µg/mL) | 94.4 µM (≈ 26.6 µg/mL) | 2.81 mL/min/kg | 10.3 h | 1.79 h | 114% | 0.047 |  |
| Cc1cc(Oc2[nH]nnc2C(=O)O)ccc1Br [Example I-037, 5-(4-Bromo-3-methylphenoxy)-1H-1,2,3-triazole-4-carboxylic acid] | 34 nM | 400 nM | 96.8 µM (≈ 28.9 µg/mL) | 96.1 µM (≈ 28.6 µg/mL) | < 0.15 mL/min/kg | > 83.3 h | 0.786 h | 105% |  |  |
| O=C(O)c1nn[nH]c1Oc1ccc(-c2ccccc2F)cc1 [Example I-174, 5-((2′-Fluoro-[1,1′-biphenyl]-4-yl)oxy)-1H-1,2,3-triazole-4-carboxylic acid] | 27 nM | 3000 nM | 89.8 µM (≈ 26.9 µg/mL) | 70.3 µM (≈ 21.1 µg/mL) | 2.48 mL/min/kg | 11.7 h | 1.17 h | 99.9% |  |  |
| N#Cc1cccc(-c2ccc(Oc3[nH]nnc3C(=O)O)cc2)c1 [Example I-256, 5-((3′-Cyano-[1,1′-biphenyl]-4-yl)oxy)-1H-1,2,3-triazole-4-carboxylic acid] | 22 nM |  | 90.5 µM (≈ 27.7 µg/mL) | 86.9 µM (≈ 26.6 µg/mL) | 0.4 mL/min/kg | 71.6 h | 8.52 h | 113% |  | 10000 nM |
| O=C(O)c1nn[nH]c1Oc1cncc(-c2cccnc2)c1 [Example I-264, 5-([3,3′-Bipyridin]-5-yloxy)-1H-1,2,3-triazole-4-carboxylic acid] | 380 nM | > 10000 nM | 108 µM (≈ 30.4 µg/mL) | 105 µM (≈ 29.7 µg/mL) | 0.17 mL/min/kg | 173 h | 1.72 h | 123% |  |  |
| O=C(O)c1nn[nH]c1Oc1ccc2ccccc2c1 [Example I-058, 5-(Naphthalen-2-yloxy)-1H-1,2,3-triazole-4-carboxylic acid] | 50 nM | 2000 nM | 90.8 µM (≈ 23.2 µg/mL) | 81.5 µM (≈ 20.8 µg/mL) | 2.1 mL/min/kg | 13.8 h | 0.852 h | 101% |  |  |
| O=C(O)c1nn[nH]c1Oc1cccc(-c2cccnc2)c1 [Example I-259, 5-(3-(Pyridin-3-yl)phenoxy)-1H-1,2,3-triazole-4-carboxylic acid] | 18 nM | 2000 nM | 93.1 µM (≈ 26.3 µg/mL) | 96.1 µM (≈ 27.1 µg/mL) | 0.45 mL/min/kg | 64.3 h | 1.33 h | 105% | 0.221 |  |
| Cc1cc(Oc2[nH]nnc2C(=O)O)ccc1Cl [Example I-258, 5-(4-Chloro-3-methylphenoxy)-1H-1,2,3-triazole-4-carboxylic acid] | 44 nM | 300 nM | 95.8 µM (≈ 24.3 µg/mL) | 93.5 µM (≈ 23.7 µg/mL) | < 0.15 mL/min/kg | > 83.3 h | 1.05 h | 110% |  |  |
| COc1ccc(-c2cccc(Oc3[nH]nnc3C(=O)O)c2)cc1 [Example I-250, 5-((4′-Methoxy-[1,1′-biphenyl]-3-yl)oxy)-1H-1,2,3-triazole-4-carboxylic acid] | 25 nM |  | 110 µM (≈ 34.1 µg/mL) | 99.4 µM (≈ 30.9 µg/mL) | 8.95 mL/min/kg | 3.24 h | 2.43 h | 98.8% | 0.089 | > 5000 nM |
| O=C(O)c1nn[nH]c1Oc1cncc(-c2ccccc2)c1 [Example I-262, 5-((5-Phenylpyridin-3-yl)oxy)-1H-1,2,3-triazole-4-carboxylic acid] | 191 nM | > 10000 nM | 97.2 µM (≈ 27.4 µg/mL) | 94.2 µM (≈ 26.6 µg/mL) | < 0.15 mL/min/kg | > 83.3 h | 1.63 h | 120% | 0.009 |  |
| O=C(O)c1nn[nH]c1Oc1ccc(C2CCCC2)cc1 [Example I-265, 5-(4-Cyclopentylphenoxy)-1H-1,2,3-triazole-4-carboxylic acid] | 25 nM |  | 107 µM (≈ 29.2 µg/mL) | 100 µM (≈ 27.4 µg/mL) | 18.6 mL/min/kg | 1.55 h | 1.44 h | 110% |  |  |
| CCCC(C)c1cccc(Oc2[nH]nnc2C(=O)O)c1 (stereo not shown) [Example I-277] | 65 nM |  | 113 µM (≈ 31.1 µg/mL) | 97.2 µM (≈ 26.8 µg/mL) | 8.56 mL/min/kg | 3.38 h | 2.71 h | 108% | 0.003 |  |
| O=C(O)c1[nH]nnc1Oc1ccc(-c2ccc(Cl)cc2)cc1 [Example I-152, 5-((4′-Chloro-[1,1′-biphenyl]-4-yl)oxy)-1H-1,2,3-triazole-4-carboxylic acid] | 17 nM | 10000 nM |  |  |  |  | 3.22 h | 97.7% |  |  |

More lines, in order of falling IC50 [1], values ahead:

| IC50 [1] | IC50 [2, 8] | solubility at 1 h [3] | solubility at 1 h [4] | CLint scaled at 1 μM [5] | half-life at 1 μM [5] | half-life at 2 μM [6] | recovery at 5 h, 1 μM [7] | fraction unbound at 5 h, 1 μM [7] | IC50 [2] | SMILES |
| --- | --- | --- | --- | --- | --- | --- | --- | --- | --- | --- |
| 17 nM | 2500 nM | 114 µM (≈ 34.1 µg/mL) | 106 µM (≈ 31.7 µg/mL) | 3.82 mL/min/kg | 7.58 h | 2.51 h | 94.4% |  |  | O=C(O)c1nn[nH]c1Oc1cccc(-c2ccccc2F)c1 [Example I-254, 5-((2′-Fluoro-[1,1′-biphenyl]-3-yl)oxy)-1H-1,2,3-triazole-4-carboxylic acid] |
| 13 nM | 2500 nM | 91.8 µM (≈ 33 µg/mL) | 89.8 µM (≈ 32.3 µg/mL) | 1.53 mL/min/kg | 19 h | 3.04 h | 102% | 0.022 |  | CS(=O)(=O)c1ccc(-c2cccc(Oc3[nH]nnc3C(=O)O)c2)cc1 [Example I-257, 5-((4′-(Methylsulfonyl)-[1,1′-biphenyl]-3-yl)oxy)-1H-1,2,3-triazole-4-carboxylic acid] |
| 13 nM | 2500 nM | 108 µM (≈ 31.9 µg/mL) | 101 µM (≈ 29.8 µg/mL) | 17.7 mL/min/kg | 1.64 h | 4.87 h | 98.2% |  |  | Cc1ccc(-c2cccc(Oc3[nH]nnc3C(=O)O)c2)cc1 [Example I-251, 5-((4′-Methyl-[1,1′-biphenyl]-3-yl)oxy)-1H-1,2,3-triazole-4-carboxylic acid] |
| 13 nM |  | < 0.2 µM | 109 µM (≈ 37.2 µg/mL) | 2.72 mL/min/kg | 10.6 h | 5.2 h | 101% | 0.008 |  | COc1ccc(-c2ccc(Oc3[nH]nnc3C(=O)O)cc2)cc1OC [Example I-270, 5-((3′,4′-Dimethoxy-[1,1′-biphenyl]-4-yl)oxy)-1H-1,2,3-triazole-4-carboxylic acid] |
| 12 nM | 2500 nM | 101 µM (≈ 30.3 µg/mL) | 64.6 µM (≈ 19.3 µg/mL) | 6.99 mL/min/kg | 4.14 h | 2.88 h | 93.6% |  |  | O=C(O)c1nn[nH]c1Oc1ccc(-c2ccc(F)cc2)cc1 [Example I-160, 5-((4′-Fluoro-[1,1′-biphenyl]-4-yl)oxy)-1H-1,2,3-triazole-4-carboxylic acid] |
| 9 nM | 2500 nM | 102 µM (≈ 32.2 µg/mL) | 91.7 µM (≈ 29 µg/mL) | 5.51 mL/min/kg | 5.26 h | 1.78 h | 112% |  |  | O=C(O)c1nn[nH]c1Oc1cccc(-c2cccc(Cl)c2)c1 [Example I-253, 5-((3′-Chloro-[1,1′-biphenyl]-3-yl)oxy)-1H-1,2,3-triazole-4-carboxylic acid] |
| 8 nM |  | 106 µM (≈ 33 µg/mL) | 101 µM (≈ 31.4 µg/mL) | < 0.15 mL/min/kg | > 83.3 h | 4.77 h | 92.5% |  | 5000 nM | COc1cccc(-c2ccc(Oc3[nH]nnc3C(=O)O)cc2)c1 [Example I-158, 5-((3′-Methoxy-[1,1′-biphenyl]-4-yl)oxy)-1H-1,2,3-triazole-4-carboxylic acid] |
